In patent US8642834B2, “Methods for the identification of agents that inhibit mesenchymal-like tumor cells or their formation” (OSI Pharmaceuticals, LLC, priority 2009, dated 2014):

Columns and labels:
Type in all cases: cell-based, human
CFPAC1 cells [1] = assay: 2D immunofluorescence of E-cadherin and vimentin; conditions: cells treated 7 days with ligand, compared to untreated cells
Method: Cells were plated on coverslips and stimulated with ligand the following day (day 0). On day 4, medium and ligands were refreshed. After 7 days, the cells were fixed in 4% paraformaldehyde (EMS#15701)/PBS (Gibco #14190) for 10 minutes at room temperature, and then permeabilized in 0.1% Triton X-100 (Sigma #P1379)/PBS for 10 minutes. Cells were blocked in 3% BSA/PBS for one hour and incubated in primary antibody solution (E-cadherin, Santa Cruz #sc21791 and Vimentin, Chemicon #AB5733 in blocking buffer) for two hours at room temperature. Cells were washed in PBS and incubated in secondary antibody (Invitrogen #A11029 and Chemicon #AP194R) for one hour followed by nuclear counterstain TO-PRO3 (Invitrogen #T3605). Coverslips were mounted on slides with Pro-Long Gold antifade reagent (Invitrogen P36934). Images were captured on a Leica DMRXE microcope with SP2 scanner using Leica Confocal Software.

CFPAC-1 cells = assay: Cell morphology by light microscopy; conditions: treated 7 days; versus untreated cells that formed colonies
Method: The CFPAC1 cell line was cultured in DMEM media (Gibco #11960) supplemented with 10% FBS (Sigma), 2 mM L Glutamine (Gibco), at 37° C., 5% CO2. For 7 day treatments, cells were seeded on tissue culture plastic in complete growth media and allowed to attach overnight at cell densities that would provide approximately 60-80% confluence at end of experiment. Ligand and/or inhibitor was added the following day (Day 0) in complete growth media and incubated at 37° C., 5% CO2. Ligand source and concentrations used are as follows: [1] From R&D systems, SDF-1α (stromal derived factor-1 alpha) at 100 ng/ml, TRANCE (TNF-related activation induced cytokine) at 50 ng/ml, FGF1 (fibroblast growth factor acidic) at 10 ng/ml, FGF2 (fibroblast growth factor basic) at 10 ng/ml, BMP4 (bone morphogenetic protein 4) at 100 ng/ml, BMP7 (bone morphogenetic protein 7) at 100 ng/ml, IGF2 (insulin-like growth factor 2) at 100 ng/ml, OSM (Oncostatin M) at 100 ng/ml, NRG1 (Neuregulin-1) at 50 ng/ml, PDGFaa (Platelet derived growth factor a) at 50 ng/ml, PDGFbb (platelet derive growth factor b) at 30 ng/ml, Ang2 (Angiopoeitin 2) at 400 ng/ml, amphiregulin at 100 ng/ml, HMGB 1 (Human high-mobility group box 1 protein) at 50 ng/ml; [2] […]

CFPAC1 cells [2] = assay: Transcriptional changes to EMT genes, qPCR
Method: The CFPAC1 cell line was cultured in DMEM media (Gibco #11960) supplemented with 10% FBS (Sigma), 2 mM L Glutamine (Gibco), at 37° C., 5% CO2. For 7 day treatments, cells were seeded on tissue culture plastic in complete growth media and allowed to attach overnight at cell densities that would provide approximately 60-80% confluence at end of experiment. Ligand and/or inhibitor was added the following day (Day 0) in complete growth media and incubated at 37° C., 5% CO2. Ligand source and concentrations used are as follows: [1] From R&D systems, SDF-1α (stromal derived factor-1 alpha) at 100 ng/ml, TRANCE (TNF-related activation induced cytokine) at 50 ng/ml, FGF1 (fibroblast growth factor acidic) at 10 ng/ml, FGF2 (fibroblast growth factor basic) at 10 ng/ml, BMP4 (bone morphogenetic protein 4) at 100 ng/ml, BMP7 (bone morphogenetic protein 7) at 100 ng/ml, IGF2 (insulin-like growth factor 2) at 100 ng/ml, OSM (Oncostatin M) at 100 ng/ml, NRG1 (Neuregulin-1) at 50 ng/ml, PDGFaa (Platelet derived growth factor a) at 50 ng/ml, PDGFbb (platelet derive growth factor b) at 30 ng/ml, Ang2 (Angiopoeitin 2) at 400 ng/ml, amphiregulin at 100 ng/ml, HMGB 1 (Human high-mobility group box 1 protein) at 50 ng/ml; [2] From Genscript, LIF (Leukemia inhibitory factor) at 20 ng/ml, GM-CSF (Granulocyte macrophage colony stimulating factor) at 25 ng/ml, M-CSF (Macrophage colony stimulating factor) at 50 ng/ml; [3] From Anaspec, PAR1 (Protease activated receptor 1 agonist) at 100 μM; PAR2 (Protease activated receptor 2 agonist; peptide SLIGKV-NH2, Cat. No. 60217-1) at 100 μM; PAR4 (Protease activated receptor […] agonist; peptide AYPGKF-NH2, Cat. No. 60218-1) at 100 μM; [4] From Peprotech, HGF (Hepatocyte Growth Factor) at 100 ng/ml; IL-31 (Interleukin-31) at 50 ng/ml, IL-33 (Interleukin-33) at 50 ng/ml, IL1-a (Interleukin-1 alpha) at 10 ng/ml, CTGF (Connective tissue growth factor) at 20 ng/ml, WISP1 (Wnt-1 inducible signaling pathway protein) at 20 ng/ml, PTHrP ([…] hormone-related protein) at 50 ng/ml, MCP1 (monocyte chemotactic protein-1) at 50 ng/ml; and [5] from Sigma, Fulvestrant at 1 μM. Fresh medium containing ligand and/or inhibitor was added 3-4 days after initial dose, and at Day 7 cells were harvested for western blot analysis.
Cells were plated and treated with ligand for one or 7 days. At the time of harvest, cells were trypsinized and snap frozen for later use. Total RNA was isolated using RNAqueous-4 PCR Kit (Ambion, AM1914). For qPCR on tumor material, the tumor samples were homogenized using a small tissue homogenizer (Ultra-Turrax T8 from IKA-Werke) in 175ul RNA lysis buffer. Homogenization was for 1 minute on ice. RNA was isolated using the SV Total RNA Isolation System (Promega Cat #Z3100) according to the manufactures instructions. Samples were DNase treated using the Turbo DNA-Free kit (Ambion, AM1907) and reverse transcribed using Superscript III (Invitrogen, 18080-044) for qPCR analysis. Taqman primers and Locked-Nucleic Acid probes were designed using ProbeFinder software (Universal Probe library, Roche). For mRNA analysis, real time PCR was performed using the ABI 7900HT series PCR machine. Thermocycle conditions were as follows: 50° C. for 2 minutes, 95° C. for 10 minutes, 95° C. for 15 seconds, 50° C. for 10 seconds, 60° C. for 1 minute. Data was collected over 45 cycles and then normalized to GAPDH and further normalized to the untreated control sample.

With “HGF: Hepatocyte Growth Factor from Peprotech, used at 100 ng/ml” the “E-cadherin and vimentin staining” value (CFPAC1 cells [1]) was “strong vimentin staining with no E-cadherin”, the Cell morphology (CFPAC-1 cells) was “less compact with more elongated cell morphology” and the “ACTN1 mRNA fold change” value (CFPAC1 cells [2]; ligand 1 Day) was “NC (Only changes greater than 3 fold are reported. NC indicates no change.)”. For the same substance, the “CDH1 mRNA fold change” value (CFPAC1 cells [2]; ligand 1 Day) was “NC (Only changes greater than 3 fold are reported. NC indicates no change.)”, the “CDH2 mRNA fold change” value (CFPAC1 cells [2]; ligand 1 Day) was “NC (Only changes greater than 3 fold are reported. NC indicates no change.)” and the “ITGB3 mRNA fold change” value (CFPAC1 cells [2]; ligand 1 Day) was “NC (Only changes greater than 3 fold are reported. NC indicates no change.)”. For the same substance, the “MMP7 mRNA fold change” value (CFPAC1 cells [2]; ligand 1 Day) was “NC (Only changes greater than 3 fold are reported. NC indicates no change.)”, the “MTA3 mRNA fold change” value (CFPAC1 cells [2]; ligand 1 Day) was “NC (Only changes greater than 3 fold are reported. NC indicates no change.)” and the “PLAUR mRNA fold change” value (CFPAC1 cells [2]; ligand 1 Day) was “NC (Only changes greater than 3 fold are reported. NC indicates no change.)”. The “SNAI1 mRNA fold change” value (CFPAC1 cells [2]; ligand 1 Day) was “NC (Only changes greater than 3 fold are reported. NC indicates no change.)”, the “SNAI2 mRNA fold change” value (CFPAC1 cells [2]; ligand 1 Day) was “NC (Only changes greater than 3 fold are reported. NC indicates no change.)” and the “SPARC mRNA fold change” value (CFPAC1 cells [2]; ligand 1 Day) was “NC (Only changes greater than 3 fold are reported. NC indicates no change.)”. For the same substance, the “TWIST1 mRNA fold change” value (CFPAC1 cells [2]; ligand 1 Day) was “NC (Only changes greater than 3 fold are reported. NC indicates no change.)”, the “VIM mRNA fold change” value (CFPAC1 cells [2]; ligand 1 Day) was “NC (Only changes greater than 3 fold are reported. NC indicates no change.)” and the “ZEB1 mRNA fold change” value (CFPAC1 cells [2]; ligand 1 Day) was “NC (Only changes greater than 3 fold are reported. NC indicates no change.)”. The “ZEB2 mRNA fold change” value (CFPAC1 cells [2]; ligand 1 Day) was “NC (Only changes greater than 3 fold are reported. NC indicates no change.)”, the “ACTN1 mRNA fold change” value (CFPAC1 cells [2]; ligand 7 Day) was “NC (Only changes greater than 3 fold are reported. NC indicates no change.)” and the “CDH1 mRNA fold change” value (CFPAC1 cells [2]; ligand 7 Day) was “NC (Only changes greater than 3 fold are reported. NC indicates no change.)”. For the same substance, the “CDH2 mRNA fold change” value (CFPAC1 cells [2]; ligand 7 Day) was “NC (Only changes greater than 3 fold are reported. NC indicates no change.)”, the “ITGB3 mRNA fold change” value (CFPAC1 cells [2]; ligand 7 Day) was 3.57 fold and the “MMP7 mRNA fold change” value (CFPAC1 cells [2]; ligand 7 Day) was “NC (Only changes greater than 3 fold are reported. NC indicates no change.)”. For the same substance, the “MTA3 mRNA fold change” value (CFPAC1 cells [2]; ligand 7 Day) was “NC (Only changes greater than 3 fold are reported. NC indicates no change.)”, the “PLAUR mRNA fold change” value (CFPAC1 cells [2]; ligand 7 Day) was “NC (Only changes greater than 3 fold are reported. NC indicates no change.)” and the “SNAI1 mRNA fold change” value (CFPAC1 cells [2]; ligand 7 Day) was “NC (Only changes greater than 3 fold are reported. NC indicates no change.)”. The “SNAI2 mRNA fold change” value (CFPAC1 cells [2]; ligand 7 Day) was “NC (Only changes greater than 3 fold are reported. NC indicates no change.)”, the “SPARC mRNA fold change” value (CFPAC1 cells [2]; ligand 7 Day) was −5.41 fold and the “TWIST1 mRNA fold change” value (CFPAC1 cells [2]; ligand 7 Day) was 612 fold. For the same substance, the “VIM mRNA fold change” value (CFPAC1 cells [2]; ligand 7 Day) was “NC (Only changes greater than 3 fold are reported. NC indicates no change.)”, the “ZEB1 mRNA fold change” value (CFPAC1 cells [2]; ligand 7 Day) was “NC (Only changes greater than 3 fold are reported. NC indicates no change.)” and the “ZEB2 mRNA fold change” value (CFPAC1 cells [2]; ligand 7 Day) was “NC (Only changes greater than 3 fold are reported. NC indicates no change.)”.
